Results published in US9556231B2, “Beta-hairpin peptidomimetics as CXC4 antagonists” (POLYPHOR AG, priority 2011, dated 2017).
Bridge positions count the residues as written; N and C are the ends. Square brackets hold non-standard residues; d marks the D form. Peptide text beside a SMILES is read from it. Lys(iPr) = CC(C)NCCCC[C@H](N)C(=O)O; Orn(iPr) = CC(C)NCCC[C@H](N)C(=O)O; Dab = NCC[C@H](N)C(=O)O

Assay: Pharmacokinetic study (PK), i.v., CD-1 mice
Assay type: in vivo
Conditions: male, CD-1, in vivo, iv, mouse, i.v. 1 mg/kg; for level at 0.083 h / level at 0.25 h / level at 0.5 h / level at 1 h / level at 2 h / level at 3 h / level at 4 h: read-out: Calc. Conc. (plasma); for AUC(0-inf) / Cmax / clearance / half-life / Vd: one-compartmental model; for Vd: read-out: Vdis
Protocol: For the compounds of Ex. 1, Ex. 2, Ex. 3, Ex. 4, Ex. 5 and Ex. 6 pharmacokinetic studies after intravenous (i.v.) administration were performed.
30 grams (±20%) male CD-1 mice obtained from Charles River Laboratories Deutschland GmbH were used. The vehicle, phosphate buffered saline, was added to give a final concentration of 0.5 mg/mL of the compound. The volume was 2 mL/kg and the compound was injected to give a final intravenous dose of 1 mg/kg. Approximately 300-400 μL of blood was removed under light isoflurane anesthesia by cardiac puncture at predetermined time intervals (5, 15, 30 min and 1, 2, 3, 4, hours) and added to heparinized tubes. Plasma was removed from pelleted cells upon centrifugation and frozen at −80° C. prior to HPLC-MS analysis.
Aliquots of 50 μL each of mouse plasma of untreated aminals (“blank” mouse plasma) were spiked with known amounts of the compounds Ex. 1, Ex. 2, Ex. 3, Ex. 4, Ex. 5 and Ex. 6 in order to obtain 10 plasma calibration samples for each compound in the range 1-4000 ng/mL. Aliquots of 50 μL each of mouse plasma from treated animals were used as plasma study samples.
All plasma samples were spiked with an appropriate internal standard and extracted with acetonitrile containing 2% formic acid. Supernatants were evaporated to dryness under nitrogen and the remaining solids reconstituted in water/acetonitrile 95/5 (v/v)+0.2% formic acid.
Extracts were then analyzed by reverse-phase chromatography (Acquity BEH C18, 100×2.1 mm, 1.7 μm column, Waters for Ex. 1 and Acquity HSS C18 SB, 100×2.1 mm, 1.8 μm column, Waters for Ex. 2, Ex. 3, Ex. 4, Ex. 5 and Ex. 6), using the following conditions: Ex. 1, mobile phases: (A) water/acetonitrile 95/5 (v/v)+0.1% formic acid, (B) acetonitrile/water 95/5 (v/v)+0.1% formic acid, gradient: 1% (B) 0-0.1 min, 15% (B) 0.1-2.5 min for Ex. 1 and 1% (B) 0-0.1 min, 40% (B) 0.1-2.5 min for Ex. 2, Ex. 3, Ex. 4, Ex. 5 and Ex. 6. The detection and quantification was performed by mass spectrometry, with electrospray interface in positive mode and selective fragmentation of analytes (4000 Q Trap mass spectrometer, AB Sciex).
PK parameters were calculated by WinNonLin™ software version 5.3 (Pharsight-A Certara™ Company, Mountain View, Calif. 94041 USA) using a one-compartmental model analysis. PK parameters were determined by least-square fitting of the model to the experimental data.

## CC(C)NCCCC[C@@H]1NC(=O)[C@H](CCC(N)=O)NC(=O)[C@H](Cc2ccc(O)cc2)NC(=O)[C@@H]2CSSC[C@H](NC(=O)[C@H](Cc3ccc(O)cc3)NC(=O)[C@H](Cc3c[nH]cn3)NC(=O)[C@H](Cc3ccc(O)cc3)NC(=O)[C@@H]3CCCN3C(=O)[C@H]3CCCN3C1=O)C(=O)N[C@@H](CO)C(=O)N[C@@H](C)C(=O)N1CCC[C@@H]1C(=O)N[C@@H](CCCNC(C)C)C(=O)N[C@@H](CCCNC(=N)N)C(=O)N[C@@H](Cc1ccc(O)cc1)C(=O)N2 [Ex. 1, cyclo(-Tyr^1-His^2-Tyr^3-Cys^4-Ser^5-Ala^6-^DPro^7-Orn(iPr)^8-Arg^9-Tyr^10-Cys^11-Tyr^12-Gln^13-Lys(iPr)^14-^DPro^15-Pro^16-) disulfide bond between Cys^4 and Cys^11] (cyclo(YHYCSA[dP][Orn(iPr)]RYCYQ[Lys(iPr)][dP]P); disulfide 4-11)
  level at 0.083 h: 1720 ng/mL
  level at 0.25 h: 989 ng/mL
  level at 0.5 h: 947 ng/mL
  level at 1 h: 373 ng/mL
  level at 2 h: 129 ng/mL
  level at 3 h: 15 ng/mL
  AUC(0-inf): 1150 ng·h/mL
  Cmax: 1830 ng/mL
  clearance: 14.5 mL/min/kg
  half-life: 24 min
  Vd: 0.547 L/kg

## CC(C)NCCCC[C@@H]1NC(=O)[C@H](CCC(N)=O)NC(=O)[C@H](Cc2ccc(O)cc2)NC(=O)[C@@H]2CSSC[C@H](NC(=O)[C@H](C)NC(=O)[C@H](Cc3c[nH]cn3)NC(=O)[C@H](Cc3ccc(O)cc3)NC(=O)[C@@H]3CCCN3C(=O)[C@H]3CCCN3C1=O)C(=O)N[C@@H](CO)C(=O)N[C@@H](C)C(=O)N[C@H](Cc1ccc(O)cc1)C(=O)N[C@@H](CCN)C(=O)N[C@@H](CCCNC(=N)N)C(=O)N[C@@H](Cc1ccc(O)cc1)C(=O)N2 [Ex. 3, cyclo(-Tyr^1-His^2-Ala^3-Cys^4-Ser^5-Ala^6-^DTyr^7-Dab^8-Arg^9-Tyr^10-Cys^11-Tyr^12-Gln^13-Lys(iPr)^14-^DPro^15-Pro^16-), disulfide bond between Cys^4 and Cys^11] (cyclo(YHACSA[dY][Dab]RYCYQ[Lys(iPr)][dP]P); disulfide 4-11)
  level at 0.083 h: 1170 ng/mL
  level at 0.25 h: 999 ng/mL
  level at 0.5 h: 442 ng/mL
  level at 1 h: 402 ng/mL
  level at 2 h: 136 ng/mL
  level at 3 h: 26 ng/mL
  level at 4 h: 12 ng/mL
  AUC(0-inf): 898 ng·h/mL
  Cmax: 1310 ng/mL
  clearance: 18.6 mL/min/kg
  half-life: 30 min
  Vd: 0.762 L/kg

## COc1ccc(C[C@H]2NC(=O)[C@H](C)NC(=O)[C@H](CO)NC(=O)[C@@H]3CSSC[C@H](NC(=O)[C@H](Cc4ccc(O)cc4)NC(=O)[C@H](CCCNC(=N)N)NC(=O)[C@H](CCCNC(C)C)NC2=O)C(=O)N[C@@H](Cc2ccc(O)cc2)C(=O)N[C@@H](CCC(N)=O)C(=O)N[C@@H](CCCCNC(C)C)C(=O)N2CCC[C@@H]2C(=O)N2CCC[C@H]2C(=O)N[C@@H](Cc2ccc(O)cc2)C(=O)N[C@@H](Cc2c[nH]cn2)C(=O)N[C@@H](C)C(=O)N3)cc1 [Ex. 4, cyclo(-Tyr^1-His^2-Ala^3-Cys^4-Ser^5-Ala^6-^DTyr(Me)^7-Orn(iPr)^8-Arg^9-Tyr^10-Cys^11-Tyr^12-Gln^13-Lys(iPr)^14-^DPro^15-Pro^16-), disulfide bond between Cys^4 and Cys^11] (cyclo(YHACSA[dY](Me)[Orn(iPr)]RYCYQ[Lys(iPr)][dP]P); disulfide 4-11)
  level at 0.083 h: 1620 ng/mL
  level at 0.25 h: 869 ng/mL
  level at 0.5 h: 775 ng/mL
  level at 1 h: 504 ng/mL
  level at 2 h: 159 ng/mL
  level at 3 h: 25 ng/mL
  level at 4 h: 13 ng/mL
  AUC(0-inf): 1340 ng·h/mL
  Cmax: 1620 ng/mL
  clearance: 12.4 mL/min/kg
  half-life: 36 min
  Vd: 0.607 L/kg
